Reference: paper PMC5344672 (Journal of medicinal chemistry, 2016)
“Also recorded” adds a separate entry of the source.

Columns and labels:
MOR-1 = MOR-1 (Mus musculus, UniProt P42866); assay: [35S]GTPγS functional assay, MOR-1 transfected cells; assay type: biochemical; settings: in words
KOR-1 = KOR-1 (Mus musculus, UniProt P33534); assay type: biochemical
DOR-1 = DOR-1 (Mus musculus, UniProt P32300); assay: [35S]GTPγS functional assay, DOR-1 transfected cells; assay type: biochemical; settings: in words
Chain of DOR-1 (P32300 whole entry): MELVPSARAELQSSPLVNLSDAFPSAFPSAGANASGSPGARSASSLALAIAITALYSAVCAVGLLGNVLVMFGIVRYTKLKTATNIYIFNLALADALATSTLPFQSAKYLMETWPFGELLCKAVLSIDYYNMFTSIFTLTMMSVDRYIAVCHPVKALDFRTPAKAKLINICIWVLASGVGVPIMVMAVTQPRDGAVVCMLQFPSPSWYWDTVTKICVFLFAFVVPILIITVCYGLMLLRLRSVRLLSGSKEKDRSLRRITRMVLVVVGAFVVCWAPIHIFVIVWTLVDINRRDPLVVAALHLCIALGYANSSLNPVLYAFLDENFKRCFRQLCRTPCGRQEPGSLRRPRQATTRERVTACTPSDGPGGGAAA

[1] = target: panel of other nonopioid drug targets; assay: PDSP screening panel; assay type: binding; settings: read-out: Ki at nonopioid drug targets
mice [2] = assay: Radiant heat tail flick antinociception; assay type: in vivo, mouse
α2A adrenergic receptor = target: T1, α2A adrenergic receptor (Homo sapiens, UniProt P08913); assay: PDSP screening; assay type: binding; settings: in words (Table S1)
T1 sequence (P08913 1-465): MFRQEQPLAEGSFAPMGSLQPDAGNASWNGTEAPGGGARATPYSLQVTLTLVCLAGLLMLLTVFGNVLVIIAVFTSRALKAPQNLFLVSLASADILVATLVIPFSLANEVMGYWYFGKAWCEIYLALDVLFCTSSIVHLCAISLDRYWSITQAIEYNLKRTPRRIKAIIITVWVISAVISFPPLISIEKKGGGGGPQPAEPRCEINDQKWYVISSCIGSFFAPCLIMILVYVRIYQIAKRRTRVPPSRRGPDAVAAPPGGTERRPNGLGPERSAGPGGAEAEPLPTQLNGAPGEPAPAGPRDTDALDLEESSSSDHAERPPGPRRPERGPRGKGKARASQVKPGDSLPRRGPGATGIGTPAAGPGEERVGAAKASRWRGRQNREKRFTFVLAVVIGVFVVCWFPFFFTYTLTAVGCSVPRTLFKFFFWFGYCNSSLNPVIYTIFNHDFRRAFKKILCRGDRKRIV

α2C adrenergic receptor = target: T2, α2C adrenergic receptor (Homo sapiens, UniProt P18825); assay: PDSP screening; assay type: binding; settings: in words (Table S1)
T2 sequence (P18825 1-462): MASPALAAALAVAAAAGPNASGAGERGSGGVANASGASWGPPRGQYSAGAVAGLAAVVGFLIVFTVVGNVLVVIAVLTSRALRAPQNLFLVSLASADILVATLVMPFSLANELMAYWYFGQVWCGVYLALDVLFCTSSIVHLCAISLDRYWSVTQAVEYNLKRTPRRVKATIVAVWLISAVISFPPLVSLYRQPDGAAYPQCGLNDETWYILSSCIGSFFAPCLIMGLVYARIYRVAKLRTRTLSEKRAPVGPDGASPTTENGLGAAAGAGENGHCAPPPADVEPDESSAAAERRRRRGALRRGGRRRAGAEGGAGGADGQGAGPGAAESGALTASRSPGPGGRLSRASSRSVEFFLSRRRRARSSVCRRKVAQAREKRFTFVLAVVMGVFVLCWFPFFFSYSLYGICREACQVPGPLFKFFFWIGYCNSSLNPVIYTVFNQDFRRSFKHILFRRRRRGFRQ

5HT7 = 5HT7 (Homo sapiens, UniProt P34969); assay: PDSP screening; assay type: binding; settings: in words (Table S1)
Chain of 5HT7 (P34969 whole entry, species assumed): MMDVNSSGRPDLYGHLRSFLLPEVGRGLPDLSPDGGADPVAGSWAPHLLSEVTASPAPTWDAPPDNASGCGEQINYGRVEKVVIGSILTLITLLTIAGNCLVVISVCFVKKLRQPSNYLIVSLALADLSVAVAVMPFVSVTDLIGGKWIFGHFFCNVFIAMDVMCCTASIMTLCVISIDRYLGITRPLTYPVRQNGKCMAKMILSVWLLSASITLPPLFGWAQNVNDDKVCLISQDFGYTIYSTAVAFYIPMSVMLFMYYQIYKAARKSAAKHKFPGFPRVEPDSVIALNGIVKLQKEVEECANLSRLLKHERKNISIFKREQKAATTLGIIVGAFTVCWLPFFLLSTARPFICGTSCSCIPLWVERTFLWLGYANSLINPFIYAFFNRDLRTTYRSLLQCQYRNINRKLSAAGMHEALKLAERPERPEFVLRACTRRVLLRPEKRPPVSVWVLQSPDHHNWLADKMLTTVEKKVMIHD

mice [3] = assay: Antinociceptive tolerance after repeated dosing; assay type: in vivo, mouse; settings: twice daily dosing
mice [4] = assay: Gastrointestinal transit; assay type: in vivo, mouse
C57BL/6 mice = assay: Respiratory rate; assay type: in vivo, mouse
CD1 mice = assay: Reversal of tail flick antinociception by selective antagonists; assay type: in vivo, mouse; settings: 3 1.5 mg/kg sc; β-FNA 40 mg/kg, norBNI 10 mg/kg, NTI 0.5 mg/kg, naloxone 1 mg/kg, yohimbine 10 mg/kg
mice [5] = assay: Antisense oligodeoxynucleotide mapping of tail flick antinociception; assay type: in vivo, mouse; settings: 3 1.5 mg/kg sc, antisense icv days 1, 3, 5, test day 6
mice [6] = settings: mouse, in vivo
[7] = dose twice analgesic ED50: morphine 5 mg/kg sc, 3 1.5 mg/kg sc
[8] = higher dose: morphine 10 mg/kg, 3 3 mg/kg sc
[9] = ~2× analgesic ED50: morphine 5 mg/kg sc, 3 1.2 mg/kg sc

Chain of MOR-1 (P42866 whole entry): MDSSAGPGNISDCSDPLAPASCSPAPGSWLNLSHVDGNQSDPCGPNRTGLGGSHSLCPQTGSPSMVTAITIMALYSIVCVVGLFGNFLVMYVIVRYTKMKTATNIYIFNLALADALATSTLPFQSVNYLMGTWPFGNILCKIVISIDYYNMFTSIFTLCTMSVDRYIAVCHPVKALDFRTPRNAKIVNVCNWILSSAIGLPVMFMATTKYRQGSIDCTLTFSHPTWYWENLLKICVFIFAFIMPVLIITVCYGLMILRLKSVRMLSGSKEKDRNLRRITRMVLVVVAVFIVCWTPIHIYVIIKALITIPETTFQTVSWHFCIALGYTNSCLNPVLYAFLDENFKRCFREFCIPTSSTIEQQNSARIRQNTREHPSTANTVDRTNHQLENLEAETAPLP
Chain of KOR-1 (P33534 whole entry): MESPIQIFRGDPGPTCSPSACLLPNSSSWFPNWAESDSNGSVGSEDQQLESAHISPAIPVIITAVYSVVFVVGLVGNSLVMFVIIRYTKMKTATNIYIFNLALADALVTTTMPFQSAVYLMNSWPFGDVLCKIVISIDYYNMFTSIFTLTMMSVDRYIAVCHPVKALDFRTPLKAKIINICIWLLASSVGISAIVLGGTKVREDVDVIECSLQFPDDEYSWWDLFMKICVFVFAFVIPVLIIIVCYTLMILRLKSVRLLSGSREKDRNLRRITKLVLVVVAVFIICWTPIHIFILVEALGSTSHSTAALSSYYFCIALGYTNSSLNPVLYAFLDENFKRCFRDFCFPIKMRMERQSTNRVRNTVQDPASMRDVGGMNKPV

## CC[C@@H]1CN2CC[C@@]3(O)C(=Nc4cccc(OC)c43)[C@@H]2C[C@@H]1/C(=C\OC)C(=O)OC [Compound 2, (E)-Methyl-2-((2S,3S,7aS)-3-ethyl-7a-hydroxy-8-methoxy-1,2,3,4,6,7,7a,12b-octahydroindolo[2,3-a]quinolizin-2-yl)-3-methoxyacrylate]
MOR-1
  functional character at MOR-1: partial agonist
KOR-1
  functional character at KOR-1: weak KOR-1 and DOR-1 antagonist
DOR-1
  functional character at DOR-1: weak KOR-1 and DOR-1 antagonist
[1]
  Ki: > 10 µM

## CC[C@@H]1CN2CC[C@]3(Nc4cccc(OC)c4C3=O)[C@@H]2C[C@@H]1/C(=C\OC)C(=O)OC [Compound 3, (E)-Methyl-2-((1′S,6′S,7′S)-6′-ethyl-4-methoxy-3-oxo-3′,5′,6′,7′,8′,8a′-hexahydro-2′H-spiro[indoline-2,1′-indolizine]-7′-yl)-3-methoxyacrylate]
MOR-1
  functional character at MOR-1: potent full agonist
KOR-1
  functional character at KOR-1: antagonist
DOR-1
  functional character at DOR-1: antagonist
Mice [2]; CD1, C57BL/6 and 129Sv6 mice, sc (Figure S5)
  antinociceptive activity across mouse strains: equally active
Mice [2]; CD1 mice, icv, tail flick, 15 min
  ED50 (95% CI), intracerebroventricular: 0.38 (0.18- 0.81) μg
Mice [2]; E1/E11 MOR-1 KO mice, sc, tail flick
  ED50, exon 1/exon 11 double KO mice: no antinociception was observed
α2A adrenergic receptor
  affinity at α2A adrenergic receptor: poor affinity
α2C adrenergic receptor
  affinity at α2C adrenergic receptor: poor affinity
5HT7
  affinity at 5HT7: poor affinity
Mice [3]
  ED50 shift after 5 days: < 2 fold
Mice [3]; 95% CI 42.27 to 65.67
  mean difference between 3 and morphine groups on day 5: 53.97 %MPE
Mice [4]; 3 at 4 mg/kg sc
  effect on gastrointestinal transit: no further inhibition
Mice [4]; [7]
  effect on gastrointestinal transit: lowered gastrointestinal transit, but not nearly as much as morphine
C57BL/6 mice; [8]
  decrease of respiratory rate: approximately 15%
C57BL/6 mice; [9]
  decrease of respiratory rate: no respiratory depression
CD1 mice
  sensitivity of antinociception to antagonists: insensitive to NTI, norBNI, and yohimbine; also recorded: antagonized by β-FNA and naloxone
Mice [5]
  effect of antisense receptor downregulation on analgesic response: only affected in mu receptor downregulated mice (MOR-1 AN)
Mice [6]
  conditioned place preference or aversion: neither preference or aversive behavior

## CC[C@@H]1CN2CC[C@]3(Nc4cccc(O)c4C3=O)[C@@H]2C[C@@H]1/C(=C\OC)C(=O)OC [Compound 4, (E)-Methyl-2-((1′S,6′S,7′S)-6′-ethyl-4-hydroxy-3-oxo-3′,5′,6′,7′,8′,8a′-hexahydro-2′H-spiro[indoline-2,1′-indolizine]-7′-yl)-3-methoxyacrylate]
MOR-1
  functional character at MOR-1: MOR-1 agonists
DOR-1
  functional character at DOR-1: DOR-1 antagonists

## CC[C@@H]1CN2CC[C@]3(Nc4ccccc4C3=O)[C@@H]2C[C@@H]1/C(=C\OC)C(=O)OC [Compound 6, (E)-Methyl-2-((1′S,6′S,7′S)-6′-ethyl-3-oxo-3′,5′,6′,7′,8′,8a′-hexahydro-2′H-spiro[indoline-2,1′-indolizin]-7′-yl)-3-methoxyacrylate]
MOR-1
  functional character at MOR-1: MOR-1 agonists
DOR-1
  functional character at DOR-1: DOR-1 antagonists

## CC[C@@H]1CN2CC[C@]3(Nc4cccc(C#N)c4C3=O)[C@@H]2C[C@@H]1/C(=C\OC)C(=O)OC [Compound 7, (E)-Methyl-2-((1′S,6′S,7′S)-4-cyano-6′-ethyl-3-oxo-3′,5′,6′,7′,8′,8a′-hexahydro-2′H-spiro[indoline-2,1′-indolizine]-7′-yl)-3-methoxyacrylate]
MOR-1
  functional character at MOR-1: MOR-1 agonists
DOR-1
  functional character at DOR-1: DOR-1 antagonists

## CC[C@@H]1CN2CC[C@]3(Nc4cccc(-c5ccccc5)c4C3=O)[C@@H]2C[C@@H]1/C(=C\OC)C(=O)OC [Compound 8, (E)-Methyl-2-((1′S,6′S,7′S)-6′-ethyl-3-oxo-4-phenyl-3′,5′,6′,7′,8′,8a′-hexahydro-2′H-spiro[indoline-2,1′-indolizine]-7′-yl)-3-methoxyacrylate]
MOR-1
  functional character at MOR-1: dual MOR-1/DOR-1 agonist
DOR-1
  functional character at DOR-1: dual MOR-1/DOR-1 agonist

## CC[C@@H]1CN2CC[C@]3(Nc4cccc(-c5ccoc5)c4C3=O)[C@@H]2C[C@@H]1/C(=C\OC)C(=O)OC [Compound 9, (E)-Methyl-2-((1′S,6′S,7′S)-6′-ethyl-4-(furan-3-yl)-3-oxo-3′,5′,6′,7′,8′,8a′-hexahydro-2′H-spiro[indoline-2,1′-indolizine]-7′-yl)-3-methoxyacrylate]
MOR-1
  functional character at MOR-1: MOR-1 agonists
DOR-1
  functional character at DOR-1: DOR-1 antagonists

## CN1CC[C@]23c4c5ccc(O)c4O[C@H]2[C@@H](O)C=C[C@H]3[C@H]1C5 [morphine, reference compound]
Mice [2]; Mus musculus, sc, 0.25 h, read-out: antinociception sc, ED50 mg/kg (CI)
  ED50: 2.5 mg/kg
Mice [3]; day 5
  ED50 after 5 days: 12.1 (7.6–19.4) mg/kg
Mice [4]; [7]
  effect on gastrointestinal transit: almost totally eliminated transit
C57BL/6 mice; [8]
  decrease of respiratory rate: approximately 50%
C57BL/6 mice; [9]
  decrease of respiratory rate: approximately 30%
Mice [6]
  conditioned place preference or aversion: significant conditioned place preference
